US8227510B2, “Combine use of pterostilbene and quercetin for the production of cancer treatment medicaments” (Universitat de Valencia, priority 2004, dated 2012)

Assay: in vivo
Parameters: species or system mice
Conditions: mouse
Excerpt: The mice (C57BL/6J, male, 6-8 weeks) were from Charles River Spain (Barcelona). The procedures and animal care were based on institutional standards and complied with national and international laws and policies (Directive 86/609, OJ L 358. 1 of the Council of the European Community, of 12 Dec. 1987) and the “Guide for the Care and Use of Laboratory Animals” of the National Institutes of Health (NIH, USA) (NIH Publication No. 85-23, 1985). All the animals were fed according to concentrated laboratory diets (Letica, Barcelona, Spain) allowing them free access to food and submitting them to a cycle of 12 hours of light/12 hours of darkness with ambient temperature of 22° C. The experiments were begun at 10.00 a.m. to minimize the effects of diurnal variations.
For the pharmacokinetic studies and for the daily treatment, the mice were administered i.v. (via the jugular vein, where a permanent catheter had previously been fixed by surgical methods; i.v. administration was carried out slowly for 1 minute), and orally (via stomach tube), 20 mg/kg of t-PTER (dissolved in ethanol 0.5 ml/kg of animal weight) or QUER (dissolved in dimethylsulfoxide:saline, 1:0.5 0.15 ml/kg of weight). In general, the compositions based on a combination of PTER and QUER can contain, as excipients, those stated previously or any others that are pharmaceutically acceptable. The presentation of said compositions can be, non-limitatively, in the form of solids such as tablets, capsules, pellets, pills, etc. and liquid presentations such as drops, syrups, injectables, etc. Moreover, the active principles (PTER and QUER) of the composition can be in their uncombined forms or in the form of pharmaceutically acceptable salts, including esters. The t-PTER was synthesized in our laboratory following standardized reactions of Wittig and Heck (www.orgsyn.org), whereas the QUER was obtained from Sigma Chemical Co. (San Luis, Mo., USA). The ^3H-t-PTER (2.2 Ci/mmol), labeled in the ortho and para positions of the benzene rings, was prepared in our laboratory according to a method similar to that used for the deuteration of phenols (18). ^14C-QUER (50 mCi/mmol), labeled in position 4 of the carbon ring, was obtained from the NCI Radiochemical Carcinogen Repository of Chemsyn Laboratories (Kansas City, Mo., USA). The radioactivity was measured using a Varisette 2700 TR analyzer from Packard. Blood was collected by means of the catheter in 1-ml syringes that contained heparin sodium (0.05 ml of a 5% solution in […]). The plasma and the erythrocytes were separated as described previously (19).
LC-MS/MS was carried out using a Quattro Micro triple quadrupole mass spectrometer (Micromass, Manchester, UK) equipped with an LC-10Advp pump, an SLC-10Avp control system and an SIL-10Advp autoinjector from Shimadzu. The samples were analyzed by reverse-phase high-performance liquid chromatography using a Prodigy ODS column (100×2 mm) from Phenomenex (Torrance, Calif., USA), with a particle size of 3 μm. In all cases, 40 μl was injected into the column. Column temperature was maintained at 25° C. The following gradient system was used, pumped through the column at 0.2 ml/minute (min/% A/% B/% C) (A, methanol; B, 10% acetonitrile and 90% ammonium formate 10 mM pH 3.75; C, ammonium formate 10 mM pH 3.75): 0/5/5/90, 10/5/5/90, 20/5/90/5, 30/100/0/0, 40/5/5/90. The negative ion tandem mass spectra obtained by electrospray were recorded with the electrospray capillary fixed at […] and at a temperature of the source block of 120° C. Nitrogen was used as nebulizer gas and drying gas, with flows of 300 and 30 l/h, respectively. Argon at 1.5×10^−3 mbar was used as the collision gas for collision-induced dissociation. A test was carried out based on LC-MS/MS with tracking of multiple reactions using the transitions m/z 255-240 for PTER and […] for QUER, which in both cases represent favorable fragmentation routes for these deprotonated molecules. […]

Row | half-life | Compound | PTER measured in plasma or blood in the trans form (male, C57BL/6J) | half-life (male, C57BL/6J, iv, 20 mg/kg) | time in which plasma concentration decreases to ~1 μM (male, C57BL/6J, iv, 20 mg/kg) | levels in whole blood compared with plasma
1 |  | COc1cc(/C=C/c2ccc(O)cc2)cc(OC)c1 [PTER, pterostilbene] | At least 99% | ~77.9 min | 480 min | not significantly different
2 |  | O=c1c(O)c(-c2ccc(O)c(O)c2)oc2cc(O)cc(O)c12 [QUER, quercetin] |  | ~20.1 min | 120 min | not significantly different
3 | ~10.2 min | Oc1ccc(C=Cc2cc(O)cc(O)c2)cc1 [RESV, resveratrol, reference compound] |  |  |  | 
